Data as given in PMC12736008, “New Dimethylpyridine-3-Carboxamide Derivatives as MMP-13 Inhibitors with Anticancer Activity” (Molecules, 2025).

Experiments:
[1] = molecular target: T1, human serum albumin (HSA) (Homo sapiens, UniProt P02768); assay: Fluorescence quenching titration of human serum albumin; assay type: binding; settings: for ΔG^0 / ΔH^0 / ΔS^0: HSA complex formation; for ΔG^0: one value for 297-308 K; for ΔH^0 / ΔS^0: van't Hoff; for KSV·10^4: PBS pH 7.4
T1 construct: purchased Sigma-Aldrich
T1 sequence (P02768 25-609): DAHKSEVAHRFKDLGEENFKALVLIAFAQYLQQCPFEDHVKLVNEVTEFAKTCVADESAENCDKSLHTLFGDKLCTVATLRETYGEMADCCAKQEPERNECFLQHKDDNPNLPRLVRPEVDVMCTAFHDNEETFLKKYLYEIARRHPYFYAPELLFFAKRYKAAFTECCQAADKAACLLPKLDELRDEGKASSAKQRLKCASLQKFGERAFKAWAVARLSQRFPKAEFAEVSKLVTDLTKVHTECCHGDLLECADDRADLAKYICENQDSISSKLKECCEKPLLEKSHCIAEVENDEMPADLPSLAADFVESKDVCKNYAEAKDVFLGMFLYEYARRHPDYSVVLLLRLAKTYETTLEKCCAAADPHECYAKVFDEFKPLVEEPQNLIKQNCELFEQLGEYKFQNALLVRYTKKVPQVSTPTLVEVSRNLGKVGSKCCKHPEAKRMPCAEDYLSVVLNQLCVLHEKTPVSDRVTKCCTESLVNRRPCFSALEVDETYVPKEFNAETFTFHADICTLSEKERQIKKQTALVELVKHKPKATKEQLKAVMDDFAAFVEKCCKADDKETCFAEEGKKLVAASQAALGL
Procedure: In the human albumin, the amino acid residue Trp214 in subdomain IIA is of particular significance in structural studies. Subdomain IIA is responsible for binding many drugs and endogenous compounds [37]. To investigate the interactions between HSA and the tested compounds, fluorescence spectroscopy was conducted. […] The Stern–Volmer constant with inner filter correction was applied, based on changes in absorbance and in the fluorescence intensity of excited Trp214 residues located in the protein binding pocket:(1) F0/Fcorr=1+kqτQ=1+KSV[Q] (2) Fcorr=Fobs10^(Aex+Aem)/2 where F0 is maximum fluorescence intensities protein without a quencher, Fcorr is the corrected florescence intensities, kq is the quenching rate constant of the molecules, τ is the average lifetime of the molecule (for biomolecules τ = 10^−8 s), [Q] is the concentration of quencher, Ksv is the Stern-Volmer constant, Fobs is the steady-state fluorescence intensity at the maximum wavelength with the quencher, Aex and Aem are the absorbance at excitation and emission wavelengths, respectively. The quenching rate constants (kq) are higher than 2 × 10^10 dm^3 mol^−1 s^−1; therefore, the quenching mechanism is static and supports complex formation.
The binding parameters were evaluated by a double logarithm regression curve by Equation (3):(3) logF0−F/F=logKb[…] where F0 is the maximum fluorescence intensity of a protein without a quencher, F is the maximum fluorescence intensity of the protein after a quencher addition, Kb is the binding constant, [Q] is the molar concentration of the quencher, and n is the binding stoichiometry.
The compounds studied can be arranged in accordance with the value of Kb, the strength of their interaction with HSA. In this ranking, 3d is the highest ranked, followed by 3c, 3b, and 3g in descending order of compatibility. Then, using Equations (4), and van’t Hoff function (5), the thermodynamic parameters of complex formation were determined and collected in Table 5, and Figure 10:(4) logKb=−ΔH^0/RT+[…] (5) ΔG^0=ΔH^0−TΔS^0=−RTlnKb where R is the gas constant (8.314 J mol^−1 K^−1), T is temperature, Kb is the binding constant, ΔH^0 is enthalpy, ΔS^0 is entropy, and ΔG^0 is free energy change.
To perform the UV-Vis and fluorometric titration measurements, all compounds were dissolved in dimethyl sulfoxide (DMSO) at a concentration of 1⸱10^−3 mol/dm^3. A 0.01 mol/dm^3 phosphate-buffered saline (PBS) solution with a pH of 7.4 (Sigma-Aldrich Chemie GmbH, St. Louis, MO, USA) was used to prepare a 1 × 10^−6 mol/dm^3 solution of human serum albumin (HSA) (Sigma-Aldrich Chemie GmbH, St. Louis, MO, USA). The fluorescence study was performed on a Cary Eclipse 500 spectrophotometer (Agilent, Santa Clara, CA, USA). The fluorometric spectra were recorded in a quartz cuvette with a 10 mm path length over an emission range of 280–400 nm, with an excitation wavelength of 280 nm and a PMT voltage of 560 V. The UV-Vis spectra were recorded on a Jasco V-750 spectrophotometer (Jasco, Tokyo, Japan) with the following parameters: a wavelength range of 190–400 nm, a data interval of 0.1 nm, a scan speed of 400 nm/min, and automatic baseline correction. Quartz cuvettes with an optical path length of 10 mm were used. […] The titrations of the protein solution with the studied compounds were performed in 0.5 molar increments, from 0.0 to 2.0 followed by 1.0 increments up to a final molar ratio of 11.0.

NHDF cells = assay: MTT assay, NHDF; assay type: cell-based, human; settings: 24 h, 0.004 mM to 0.5 mM
From the text: As mentioned earlier, MMP-13 is overexpressed and functionally significant in various cancers, including melanoma and colorectal carcinoma. For instance, high MMP-13 levels have been correlated with metastasis and poor survival in melanoma patients. In colorectal cancer, elevated MMP-13 activity has been observed in tumors compared to normal mucosa, and its expression is associated with a worse prognosis. Based on computational studies, four out of the eleven designed compounds showing the most promising predicted activity against MMP-13 were selected for biological evaluation. For the MTT assay, NHDF cells were used as the healthy reference cell line, while A375 (melanoma) and HT-29 (colorectal adenocarcinoma cancer) cell lines were chosen as cancer models.
Experiments were conducted using two cancer cell lines and, as a control, a normal human dermal fibroblasts (NHDF; ATCC PCS-201-012). The A375 cell line (human melanoma, ATCC CRL-1619), and HT-29 cell line (human colorectal adenocarcinoma, ATCC HTB-38) were cultured in DMEM (Dulbecco’s Modified Eagle Medium, Institute of Immunology and Experimental Therapy (IITD), Wrocław, Poland) supplemented with 1% antibiotics (10 U/mL penicillin and 10 µg/mL streptomycin, Sigma-Aldrich, St Louis, MO, USA), 1% glutamine (Sigma-Aldrich, St Louis, MO, USA) and 10% fetal bovine serum (FBS, Gibco, Grand Island, NY, USA). For NHDF cultures, α-MEM (α-Minimum Essentials Medium, Institute of Immunology and Experimental Therapy (IITD), Poland) was used with the same supplement combination as for the cancer cell lines. All cells were maintained in a humidified incubator (INCO 105, Memmert GmbH, Schwabach, Germany) at 37 °C with 5% CO2 and 95% humidity. Cells were passaged routinely by trypsinization (twice a week). For the MTT (3-(4,5-simethylthiazol-2,5-diphenyltetrazolinum bromide), Sigma, St. Louis, MO, USA) assay, cells were used after 2–4 passages, when they reached approximately 80% confluence.
All tested compounds were dissolved in DMSO to obtain stock solutions with a final concentration of 50 mM (3a, 3b, 3e), 40 mM (3f, 3g, 3i, 3j), and 35 mM (3h, 3k). […] In the next step, 10 µL of each stock solution was added to 990 µL of supplemented medium.
The MTT assay was performed in 96-well plates, with a seeding density of 1 × 10^4 cells per well. All cell lines were incubated for 24 h in their respective media: α-MEM for (NHDF cells) and DMEM for (A375 and HT-29) cells. After incubation, the medium was removed and replaced with fresh medium containing the tested compounds at concentrations ranging from 0.004 mM to 0.5 mM. […] Absorbance was measured spectrophotometrically at a wavelength of 570 nm using a BioTek SYNERGY H1 microplate reader (Agilent, Santa Clara, CA, USA).

SMILES	ΔG^0 [1]	ΔH^0 [1]	ΔS^0 [1]	kq·10^12 ([1]; T 297 K)	n (binding stoichiometry) ([1]; T 297 K)	KSV·10^4 ([1]; T 297 K)	kq·10^12 ([1]; T 303 K)	n (binding stoichiometry) ([1]; T 303 K)	KSV·10^4 ([1]; T 303 K)	kq·10^12 ([1]; T 308 K)	n (binding stoichiometry) ([1]; T 308 K)	KSV·10^4 ([1]; T 308 K)	toxicity toward healthy NHDF cells (NHDF cells)
Cc1cc(C)c(C(=O)NCC(=O)NCc2ccccc2)c(S)n1 [Compound 3g, 4,6-dimethyl-N-[2-(benzylamino)-2-oxoethyl]-2-sulfanylpyridine-3-carboxamide]	-8.86 kJ/mol	-184.42 kJ/mol	−579.14 J·mol^−1·K^−1	0.87 10^12 dm^3·mol^−1·s^−1	0.60	0.87 10^4 dm^3·mol^−1	0.72 10^12 dm^3·mol^−1·s^−1	0.54	0.72 10^4 dm^3·mol^−1	0.63 10^12 dm^3·mol^−1·s^−1	0.42	0.63 10^4 dm^3·mol^−1	–
Cc1cc(C)c(C(=O)NCC(=O)NCc2ccc(Cl)cc2)c(S)n1 [Compound 3c, N-{2-[(4-chlorobenzyl)amino]-2-oxoethyl}-4,6-dimethyl-2-sulfanylpyridine-3-carboxamide]	-18.07 kJ/mol	-191.19 kJ/mol	−571.09 J·mol^−1·K^−1	2.69 10^12 dm^3·mol^−1·s^−1	0.84	2.69 10^4 dm^3·mol^−1	2.34 10^12 dm^3·mol^−1·s^−1	0.74	2.34 10^4 dm^3·mol^−1	2.07 10^12 dm^3·mol^−1·s^−1	0.65	2.07 10^4 dm^3·mol^−1	highest toxicity toward healthy NHDF
Cc1cc(C)c(C(=O)NCC(=O)NCc2ccccc2Cl)c(S)n1 [Compound 3d, N-{2-[(2-chlorobenzyl)amino]-2-oxoethyl}-4,6-dimethyl-2-sulfanylpyridine-3-carboxamide]	-17.39 kJ/mol	-190.25 kJ/mol	−570.21 J·mol^−1·K^−1	2.51 10^12 dm^3·mol^−1·s^−1	0.82	2.51 10^4 dm^3·mol^−1	2.13 10^12 dm^3·mol^−1·s^−1	0.73	2.13 10^4 dm^3·mol^−1	1.88 10^12 dm^3·mol^−1·s^−1	0.63	1.88 10^4 dm^3·mol^−1	highest toxicity toward healthy NHDF
Cc1cc(C)c(C(=O)NCC(=O)NCc2ccc(Oc3ccccc3)cc2)c(S)n1 [Compound 3b, 4,6-dimethyl-N-{2-[(4-phenoxybenzyl)amino]-2-oxoethyl}-2-sulfanylpyridine-3-carboxamide]	-13.29 kJ/mol	-402.16 kJ/mol	−1282.70 J·mol^−1·K^−1	1.21 10^12 dm^3·mol^−1·s^−1	0.89	1.21 10^4 dm^3·mol^−1	1.06 10^12 dm^3·mol^−1·s^−1	0.60	1.06 10^4 dm^3·mol^−1	0.86 10^12 dm^3·mol^−1·s^−1	0.44	0.86 10^4 dm^3·mol^−1	lowest toxicity toward healthy cells
